# Experiments:
# [1] = test system: Staphylococcus epidermidis; assay: Antimicrobial activity against teicoplanin-resistant Staphylococcus epidermidis 823 relative to vancomycin; format: functional
# Enterococcus faecium [2] = assay: Antimicrobial activity against vancomycin and teicoplanin-resistant Enterococcus faecium R-1 relative to vancomycin; format: functional
# [3] = test system: Staphylococcus haemolyticus; assay: Antimicrobial activity against teicoplanin-sensitive Staphylococcus haemolyticus 712 relative to vancomycin; format: functional
# [4] = test system: Staphylococcus haemolyticus; assay: Antimicrobial activity against teicoplanin-resistant Staphylococcus haemolyticus 712 relative to vancomycin; format: functional
# Enterococcus = assay: Antimicrobial activity against Enterococcus species; format: functional
# Staphylococcus aureus = assay: Antimicrobial activity against methicillin-resistant Staphylococcus aureus; format: functional
# Enterococcus faecium [5] = assay: Antimicrobial activity against vancomycin and teicoplanin-resistant Enterococcus faecium R-2 relative to vancomycin; format: functional
# Enterococcus faecium [6] = assay: Antimicrobial activity against vancomycin and teicoplanin-resistant Enterococcus faecium P-1 relative to vancomycin; format: functional
# [7] = test system: Staphylococcus epidermidis; assay: Antimicrobial activity against teicoplanin-sensitive Staphylococcus epidermidis 825 relative to vancomycin; format: functional
# Enterococcus equinus [8] = assay: Antimicrobial activity against vancomycin and teicoplanin-resistant Enterococcus equinus relative to vancomycin
# Enterococcus faecium [9] = assay: Antimicrobial activity against vancomycin and teicoplanin-resistant Enterococcus faecium R-1; format: functional
# Enterococcus faecium [10] = assay: Antimicrobial activity against vancomycin and teicoplanin-resistant Enterococcus faecium R-2; format: functional
# Enterococcus faecium [11] = assay: Antimicrobial activity against vancomycin and teicoplanin-resistant Enterococcus faecium P-1; format: functional
# Enterococcus equinus [12] = assay: Antimicrobial activity against vancomycin and teicoplanin-resistant Enterococcus equinus
# [13] = test system: Staphylococcus haemolyticus; assay: Antimicrobial activity against teicoplanin-sensitive Staphylococcus haemolyticus 712; format: functional
# [14] = test system: Staphylococcus epidermidis; assay: Antimicrobial activity against teicoplanin-sensitive Staphylococcus epidermidis 825; format: functional
SMILES,fold change (FC) [1],fold change (FC) (Enterococcus faecium [2]),fold change (FC) [3],fold change (FC) [4],MIC (Enterococcus) [µg/mL],MIC (Staphylococcus aureus) [µg/mL],fold change (FC) (Enterococcus faecium [5]),fold change (FC) (Enterococcus faecium [6]),fold change (FC) [7],fold change (FC) (Enterococcus equinus [8]),MIC (Enterococcus faecium [9]) [µg/mL],MIC (Enterococcus faecium [10]) [µg/mL],MIC (Enterococcus faecium [11]) [µg/mL],MIC (Enterococcus equinus [12]) [µg/mL],MIC [13] [µg/mL],MIC [14] [µg/mL]
C=C(NC(=O)C(=C)NC(=O)C(=C)NC(=O)c1ccc2c(n1)-c1nc(oc1C)C(=C)NC(=O)C(=C)NC(=O)c1nc(oc1C)/C(=C/C)NC(=O)c1csc(n1)[C@H](OC)NC(=O)c1nc(oc1C)/C(=C\C(C)O)NC(=O)[C@H]([C@@H](C)O)NC(=O)c1csc-2n1)C(N)=O (stereo partly specified) [METHYLSULFOMYCIN I],12.4,> 800,6.2,12.4,0.06,0.06,> 800,> 800,6.2,> 800,–,–,–,–,–,–
CN[C@H](CC(C)C)C(=O)N[C@H]1C(=O)N[C@@H](CC(N)=O)C(=O)N[C@H]2C(=O)N[C@H]3C(=O)N[C@H](C(=O)N[C@H](C(=O)O)c4cc(O)cc(O)c4-c4cc3ccc4O)[C@H](O)c3ccc(c(Cl)c3)Oc3cc2cc(c3O[C@@H]2O[C@H](CO)[C@@H](O)[C@H](O)[C@H]2O[C@H]2C[C@](C)(N)[C@H](O)[C@H](C)O2)Oc2ccc(cc2Cl)[C@H]1O [VANCOMYCIN],–,–,–,–,–,–,–,–,–,–,> 100,> 100,> 100,> 100,0.78,0.78
